Assay results published in patent publication US20070105792A1, “Administration Of DNA Methylation Inhibitors For Treating Epigenetic Diseases” (priority 2005, published 2007).

What was measured:
adult patients with MDS = conditions: about; after a decitabine cycle; cited from earlier work
cytidine deaminases = conditions: enzymatic degradation by cytidine deaminases, particularly in the small intestine; cited from earlier work
[1] = Chemical stability of decitabine in reconstituted and diluted aqueous infusion fluid; conditions: for pH: after preparation of the infusion; for Average degradation rate / Maximum degradation (% peak area): 0.1-1 mg/mL; for Average degradation rate: estimate assuming linearity
[2] = 0.1 mg/mL, 0.9% NaCl, Experiment 1: 2-8° C. one hour then room temperature, at 0 h
[3] = 0.1 mg/mL, 0.9% NaCl, Experiment 1: 2-8° C. one hour then room temperature, at 1 h
[4] = 0.1 mg/mL, 0.9% NaCl, Experiment 1: 2-8° C. one hour then room temperature, at 2 h
[5] = 0.1 mg/mL, 0.9% NaCl, Experiment 1: 2-8° C. one hour then room temperature, at 3 h
[6] = 0.1 mg/mL, 0.9% NaCl, Experiment 1: 2-8° C. one hour then room temperature, at 4 h
[7] = 0.1 mg/mL, 0.9% NaCl, Experiment 2: 2-8° C. ten hours then room temperature, at 0 h
[8] = 0.1 mg/mL, 0.9% NaCl, Experiment 2: 2-8° C. ten hours then room temperature, at 10 h
[9] = 0.1 mg/mL, 0.9% NaCl, Experiment 2: 2-8° C. ten hours then room temperature, at 11 h
[10] = 0.1 mg/mL, 0.9% NaCl, Experiment 2: 2-8° C. ten hours then room temperature, at 12 h
[11] = 0.1 mg/mL, 5% Dextrose, Experiment 1: 2-8° C. one hour then room temperature, at 0 h
[12] = 0.1 mg/mL, 5% Dextrose, Experiment 1: 2-8° C. one hour then room temperature, at 1 h
[13] = 0.1 mg/mL, 5% Dextrose, Experiment 1: 2-8° C. one hour then room temperature, at 2 h
[14] = 0.1 mg/mL, 5% Dextrose, Experiment 1: 2-8° C. one hour then room temperature, at 3 h
[15] = 0.1 mg/mL, 5% Dextrose, Experiment 1: 2-8° C. one hour then room temperature, at 4 h
[16] = 0.1 mg/mL, 5% Dextrose, Experiment 2: 2-8° C. ten hours then room temperature, at 0 h
[17] = 0.1 mg/mL, 5% Dextrose, Experiment 2: 2-8° C. ten hours then room temperature, at 10 h
[18] = 0.1 mg/mL, 5% Dextrose, Experiment 2: 2-8° C. ten hours then room temperature, at 11 h
[19] = 0.1 mg/mL, 5% Dextrose, Experiment 2: 2-8° C. ten hours then room temperature, at 12 h
[20] = 0.1 mg/mL, Lactated Ringer's, Experiment 1: 2-8° C. one hour then room temperature, at 0 h
[21] = 0.1 mg/mL, Lactated Ringer's, Experiment 1: 2-8° C. one hour then room temperature, at 1 h
[22] = 0.1 mg/mL, Lactated Ringer's, Experiment 1: 2-8° C. one hour then room temperature, at 2 h
[23] = 0.1 mg/mL, Lactated Ringer's, Experiment 1: 2-8° C. one hour then room temperature, at 3 h
[24] = 0.1 mg/mL, Lactated Ringer's, Experiment 1: 2-8° C. one hour then room temperature, at 4 h
[25] = 0.1 mg/mL, Lactated Ringer's, Experiment 2: 2-8° C. ten hours then room temperature, at 0 h
[26] = 0.1 mg/mL, Lactated Ringer's, Experiment 2: 2-8° C. ten hours then room temperature, at 10 h
[27] = 0.1 mg/mL, Lactated Ringer's, Experiment 2: 2-8° C. ten hours then room temperature, at 11 h
[28] = 0.1 mg/mL, Lactated Ringer's, Experiment 2: 2-8° C. ten hours then room temperature, at 12 h
[29] = about 1.0 mg/mL, 0.9% NaCl, Experiment 1: 2-8° C. one hour then room temperature, at 0 h
[30] = about 1.0 mg/mL, 0.9% NaCl, Experiment 1: 2-8° C. one hour then room temperature, at 1 h
[31] = about 1.0 mg/mL, 0.9% NaCl, Experiment 1: 2-8° C. one hour then room temperature, at 2 h
[32] = about 1.0 mg/mL, 0.9% NaCl, Experiment 1: 2-8° C. one hour then room temperature, at 3 h
[33] = about 1.0 mg/mL, 0.9% NaCl, Experiment 1: 2-8° C. one hour then room temperature, at 4 h
[34] = about 1.0 mg/mL, 0.9% NaCl, Experiment 2: 2-8° C. ten hours then room temperature, at 0 h
[35] = about 1.0 mg/mL, 0.9% NaCl, Experiment 2: 2-8° C. ten hours then room temperature, at 10 h
[36] = about 1.0 mg/mL, 0.9% NaCl, Experiment 2: 2-8° C. ten hours then room temperature, at 11 h
[37] = about 1.0 mg/mL, 0.9% NaCl, Experiment 2: 2-8° C. ten hours then room temperature, at 12 h
[38] = about 1.0 mg/mL, 5% Dextrose, Experiment 1: 2-8° C. one hour then room temperature, at 0 h
[39] = about 1.0 mg/mL, 5% Dextrose, Experiment 1: 2-8° C. one hour then room temperature, at 1 h
[40] = about 1.0 mg/mL, 5% Dextrose, Experiment 1: 2-8° C. one hour then room temperature, at 2 h
[41] = about 1.0 mg/mL, 5% Dextrose, Experiment 1: 2-8° C. one hour then room temperature, at 3 h
[42] = about 1.0 mg/mL, 5% Dextrose, Experiment 1: 2-8° C. one hour then room temperature, at 4 h
[43] = about 1.0 mg/mL, 5% Dextrose, Experiment 2: 2-8° C. ten hours then room temperature, at 0 h
[44] = about 1.0 mg/mL, 5% Dextrose, Experiment 2: 2-8° C. ten hours then room temperature, at 10 h
[45] = about 1.0 mg/mL, 5% Dextrose, Experiment 2: 2-8° C. ten hours then room temperature, at 11 h
[46] = about 1.0 mg/mL, 5% Dextrose, Experiment 2: 2-8° C. ten hours then room temperature, at 12 h
[47] = about 1.0 mg/mL, Lactated Ringer's, Experiment 1: 2-8° C. one hour then room temperature, at 0 h
[48] = about 1.0 mg/mL, Lactated Ringer's, Experiment 1: 2-8° C. one hour then room temperature, at 1 h
[49] = about 1.0 mg/mL, Lactated Ringer's, Experiment 1: 2-8° C. one hour then room temperature, at 2 h
[50] = about 1.0 mg/mL, Lactated Ringer's, Experiment 1: 2-8° C. one hour then room temperature, at 3 h
[51] = about 1.0 mg/mL, Lactated Ringer's, Experiment 1: 2-8° C. one hour then room temperature, at 4 h
[52] = about 1.0 mg/mL, Lactated Ringer's, Experiment 2: 2-8° C. ten hours then room temperature, at 0 h
[53] = about 1.0 mg/mL, Lactated Ringer's, Experiment 2: 2-8° C. ten hours then room temperature, at 10 h
[54] = about 1.0 mg/mL, Lactated Ringer's, Experiment 2: 2-8° C. ten hours then room temperature, at 11 h
[55] = about 1.0 mg/mL, Lactated Ringer's, Experiment 2: 2-8° C. ten hours then room temperature, at 12 h

Nc1ncn([C@H]2C[C@H](O)[C@@H](CO)O2)c(=O)n1 [Decitabine, 5-aza-2′-deoxycytidine]
Neutrophil nadir (delayed myelotoxicity, primary toxicity) (adult patients with MDS): 18 to 24 days | Oral bioavailability (cytidine deaminases): reduced oral bioavailability | Decitabine Content (%) [1, 2]: 97.5% | Total Impurities (%) [1, 2]: (2.5%) | Decitabine Content (%) [1, 3]: 96.9% | Total Impurities (%) [1, 3]: (3.2%) | Decitabine Content (%) [1, 4]: 95.7% | Total Impurities (%) [1, 4]: (4.3%) | Decitabine Content (%) [1, 5]: 94.1% | Total Impurities (%) [1, 5]: (6.0%) | Decitabine Content (%) [1, 6]: 92.5% | Total Impurities (%) [1, 6]: (7.7%) | Decitabine Content (%) [1, 7]: 97.8% | Total Impurities (%) [1, 7]: (2.2%) | Decitabine Content (%) [1, 8]: 93.4% | Total Impurities (%) [1, 8]: (6.7%) | Decitabine Content (%) [1, 9]: 92.3% | Total Impurities (%) [1, 9]: (7.7%) | Decitabine Content (%) [1, 10]: 90.8% | Total Impurities (%) [1, 10]: (9.2%) | pH ([1]; 0.1 mg/mL, 0.9% NaCl): 6.7 | Decitabine Content (%) [1, 11]: 97.4% | Total Impurities (%) [1, 11]: (2.6%) | Decitabine Content (%) [1, 12]: 97.2% | Total Impurities (%) [1, 12]: (2.7%) | Decitabine Content (%) [1, 13]: 96.4% | Total Impurities (%) [1, 13]: (3.6%) | Decitabine Content (%) [1, 14]: 94.9% | Total Impurities (%) [1, 14]: (5.1%) | Decitabine Content (%) [1, 15]: 93.6% | Total Impurities (%) [1, 15]: (6.4%) | Decitabine Content (%) [1, 16]: 98.2% | Total Impurities (%) [1, 16]: (1.9%) | Decitabine Content (%) [1, 17]: 94.9% | Total Impurities (%) [1, 17]: (5.2%) | Decitabine Content (%) [1, 18]: 94.5% | Total Impurities (%) [1, 18]: (5.6%) | Decitabine Content (%) [1, 19]: 93.3% | Total Impurities (%) [1, 19]: (6.7%) | pH ([1]; 0.1 mg/mL, 5% Dextrose): 6.9 | Decitabine Content (%) [1, 20]: 98.3% | Total Impurities (%) [1, 20]: (1.7%) | Decitabine Content (%) [1, 21]: 98.1% | Total Impurities (%) [1, 21]: (1.9%) | Decitabine Content (%) [1, 22]: 97.0% | Total Impurities (%) [1, 22]: (3.0%) | Decitabine Content (%) [1, 23]: 95.9% | Total Impurities (%) [1, 23]: (4.1%) | Decitabine Content (%) [1, 24]: 94.9% | Total Impurities (%) [1, 24]: (5.2%) | Decitabine Content (%) [1, 25]: 98.0% | Total Impurities (%) [1, 25]: (2.1%) | Decitabine Content (%) [1, 26]: 93.4% | Total Impurities (%) [1, 26]: (6.7%) | Decitabine Content (%) [1, 27]: 92.6% | Total Impurities (%) [1, 27]: (7.4%) | Decitabine Content (%) [1, 28]: 91.8% | Total Impurities (%) [1, 28]: (8.3%) | pH ([1]; 0.1 mg/mL, Lactated Ringer's): 6.7 | Average degradation rate ([1]; @ 4° C.): 0.40 %/hr | Average degradation rate ([1]; @ Room Temperature): 2.44 %/hr | Maximum degradation (% peak area) ([1]; S1 (6 hr stored @4° C. + 3 hr @ RT during infusion)): 9.72 % peak area | Maximum degradation (% peak area) ([1]; S2 (7 hr stored @4° C. + 3 hr @ RT during infusion)): 10.12 % peak area | Maximum degradation (% peak area) ([1]; S3 (7 hr stored @4° C. + 2 hr @ RT during infusion)): 7.68 % peak area | Maximum degradation (% peak area) ([1]; S4 (8 hr stored @4° C. + 3 hr @ RT during infusion)): 10.52 % peak area | Maximum degradation (% peak area) ([1]; S5 (8 hr stored @4° C. + 2 hr @ RT during infusion)): 8.08 % peak area | Maximum degradation (% peak area) ([1]; S6 (9 hr stored @4° C. + 2 hr @ RT during infusion)): 8.48 % peak area | Maximum degradation (% peak area) ([1]; S7 (10 hr stored @4° C. + 2 hr @ RT during infusion)): 8.88 % peak area | pH deviation from neutral pH after preparation of the infusion ([1]; Table 1 and Table 2 solutions): ≤ 0.3 pH units | Decitabine Content (%) [1, 29]: 98.0% | Total Impurities (%) [1, 29]: (2.1%) | Decitabine Content (%) [1, 30]: 96.8% | Total Impurities (%) [1, 30]: (3.3%) | Decitabine Content (%) [1, 31]: 94.8% | Total Impurities (%) [1, 31]: (5.2%) | Decitabine Content (%) [1, 32]: 92.8% | Total Impurities (%) [1, 32]: (7.3%) | Decitabine Content (%) [1, 33]: 91.1% | Total Impurities (%) [1, 33]: (9.0%) | Decitabine Content (%) [1, 34]: 97.4% | Total Impurities (%) [1, 34]: (2.7%) | Decitabine Content (%) [1, 35]: 93.4% | Total Impurities (%) [1, 35]: (6.7%) | Decitabine Content (%) [1, 36]: 92.5% | Total Impurities (%) [1, 36]: (7.6%) | Decitabine Content (%) [1, 37]: 90.8% | Total Impurities (%) [1, 37]: (9.2%) | pH ([1]; about 1.0 mg/mL, 0.9% NaCl): 6.7 | Decitabine Content (%) [1, 38]: 98.0% | Total Impurities (%) [1, 38]: (2.0%) | Decitabine Content (%) [1, 39]: 97.0% | Total Impurities (%) [1, 39]: (3.1%) | Decitabine Content (%) [1, 40]: 95.6% | Total Impurities (%) [1, 40]: (4.4%) | Decitabine Content (%) [1, 41]: 93.7% | Total Impurities (%) [1, 41]: (6.4%) | Decitabine Content (%) [1, 42]: 91.9% | Total Impurities (%) [1, 42]: (8.1%) | Decitabine Content (%) [1, 43]: 97.7% | Total Impurities (%) [1, 43]: (2.4%) | Decitabine Content (%) [1, 44]: 94.5% | Total Impurities (%) [1, 44]: (5.5%) | Decitabine Content (%) [1, 45]: 93.9% | Total Impurities (%) [1, 45]: (6.1%) | Decitabine Content (%) [1, 46]: 93.0% | Total Impurities (%) [1, 46]: (7.1%) | pH ([1]; about 1.0 mg/mL, 5% Dextrose): 7.1 | Decitabine Content (%) [1, 47]: 98.1% | Total Impurities (%) [1, 47]: (2.0%) | Decitabine Content (%) [1, 48]: 97.3% | Total Impurities (%) [1, 48]: (2.7%) | Decitabine Content (%) [1, 49]: 96.2% | Total Impurities (%) [1, 49]: (3.8%) | Decitabine Content (%) [1, 50]: 95.1% | Total Impurities (%) [1, 50]: (4.9%) | Decitabine Content (%) [1, 51]: 93.7% | Total Impurities (%) [1, 51]: (6.4%) | Decitabine Content (%) [1, 52]: 98.0% | Total Impurities (%) [1, 52]: (2.1%) | Decitabine Content (%) [1, 53]: 94.1% | Total Impurities (%) [1, 53]: (5.9%) | Decitabine Content (%) [1, 54]: 93.3% | Total Impurities (%) [1, 54]: (6.8%) | Decitabine Content (%) [1, 55]: 91.8% | Total Impurities (%) [1, 55]: (8.2%) | pH ([1]; about 1.0 mg/mL, Lactated Ringer's): 6.8 | Visual inspection of solutions ([1]; all reconstituted and diluted solutions): clear and colorless | Drug content in the infusion solution during infusion ([1]; infusions prepared and stored as instructed): above 90%
